The values below come from patent US10800767B2, “Thyroid hormone receptor beta agonist compounds” (Terns, Inc., priority 2018, dated 2020).

Test [1] has as its target TR beta-LBD (thyroid hormone receptor beta) (Homo sapiens (Human), UniProt P10828). As to the kind of experiment: LanthaScreen TR-FRET Thyroid Receptor beta Coactivator Assay (agonist screening). In kind it is biochemical. The note with it: for THRβ-Selectivity: THR beta over THR alpha, derived from T3-selectivity normalized data; for EC50: TR-FRET coactivator assay, TR beta-LBD 1.0 nM, 2 hour incubation, average of duplicate runs, read-out: EC50 THRβ-FRET. The method, then: (§1) Example B1: Time-Resolved Fluorescence Resonance Energy Transfer (TR-FRET) Assay for Thyroid Hormone Receptor Agonist Screening
(§2) LanthaScreen™ TR-FRET Thyroid Receptor alpha Coactivator Assay kit (ThermoFisher) and LanthaScreen™ TR-FRET Thyroid Receptor beta Coactivator Assay kit (ThermoFisher) were used for agonist compound screening. Compounds in DMSO were diluted using ECHO Liquid Handler (Labcyte Inc.) into 384 plates in 10-point 3-fold series in duplicate (5 micro M final top concentration). Buffer C (ThermoFisher) was added to each well before the 4× mixture of fluorescein-SCR2-2 coactivator (200 nM final concentration), Terbium-labeled anti-GST antibody (2 nM final concentration), and TR alpha-LBD (0.4 nM final concentration) or TR beta-LBD (1.0 nM final concentration) was added. After 2 hour incubation at room temperature in dark, the TR-FRET signal was measured on an EnVision plate reader (PerkinElmer) with excitation at 340 nm and dual emission readout at 495 and 520 nm with the delay time of 100 micro second and the integration time of 200 micro second. The ratio of emission signal at 520 and at 495 was used to calculate EC50 using GraphPad Prism (GraphPad Software). In every batch of compound screening, T3 (L-3,3′,5-Triiodothyronine sodium salt, >95%) (Calbiochem) was used as reference compound. The EC50 of T3 measured were within 3-fold of the reference value provided by the assay kit manufacturer (ThermoFisher Scientific). The Z′ factors measured in every batch of screening using T3 as high percent effect (HPE) control and 0.5% DMSO as zero percent effect (ZPE) control were in the range of 0.5 to 0.8. Compounds' THR-beta selectivity values are derived from T3-selectivity normalized data.
A general note: In TR-FRET formats the signal depends on donor and acceptor labels being close together.

In test [2] the target is TR alpha-LBD (thyroid hormone receptor alpha) (Homo sapiens (Human), UniProt P10827). The test is described as follows: LanthaScreen TR-FRET Thyroid Receptor alpha Coactivator Assay (agonist screening). In kind it is biochemical. To be noted: TR alpha-LBD 0.4 nM, 2 hour incubation, average of duplicate runs, read-out: EC50 THRα-FRET. The procedure:
as §1, §2

TR beta-LBD (thyroid hormone receptor beta), sequence (P10828 217-461): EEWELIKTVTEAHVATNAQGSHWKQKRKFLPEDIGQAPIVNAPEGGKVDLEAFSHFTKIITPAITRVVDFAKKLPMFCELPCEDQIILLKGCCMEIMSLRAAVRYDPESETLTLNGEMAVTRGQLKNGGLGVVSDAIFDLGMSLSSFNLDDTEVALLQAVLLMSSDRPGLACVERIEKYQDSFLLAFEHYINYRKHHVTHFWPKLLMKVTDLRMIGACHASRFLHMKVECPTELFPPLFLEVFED
TR alpha-LBD (thyroid hormone receptor alpha), sequence (P10827 other isoform, or with tags, fused parts or gaps del 1-162, other chains not shown): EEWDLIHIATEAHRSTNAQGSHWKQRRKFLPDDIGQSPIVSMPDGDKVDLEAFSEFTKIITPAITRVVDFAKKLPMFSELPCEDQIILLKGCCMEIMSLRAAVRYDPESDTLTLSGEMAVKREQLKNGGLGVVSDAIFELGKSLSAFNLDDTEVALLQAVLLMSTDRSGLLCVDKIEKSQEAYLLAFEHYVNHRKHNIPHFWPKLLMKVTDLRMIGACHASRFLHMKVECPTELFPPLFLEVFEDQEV

As a reminder, the EC50 is the concentration that produces a half-maximal response. The compound `CC(C)c1cc(Oc2c(Cl)cc(NC(C)c3noc(=O)[nH]3)cc2Cl)nn(C)c1=O` (single isomer, unassigned) [Example 3-P1, 3-(1-((3,5-dichloro-4-((5-isopropyl-1-methyl-6-oxo-1,6-dihydropyridazin-3-yl)oxy)phenyl)amino)ethyl)-1,2,4-oxadiazol-5(4H)-one] came in with a THRβ-Selectivity in test [1] of 1.0. For the same compound, the figures for the concentration giving a half-maximal response (EC50) in test [1] and in test [2] were 277 nM and 75.9 nM, respectively.

With `CC(C)c1cc(Oc2c(Cl)cc(NC(C)c3noc(=O)[nH]3)cc2Cl)nn(C)c1=O` (single isomer, unassigned) [Example 3-P2, 3-(1-((3,5-dichloro-4-((5-isopropyl-1-methyl-6-oxo-1,6-dihydropyridazin-3-yl)oxy)phenyl)amino)ethyl)-1,2,4-oxadiazol-5(4H)-one], in test [1], the THRβ-Selectivity turned out to be 4.2 and the EC50 came to 732 nM. Also, in test [2], the EC50 came out at 817 nM.

For the compound `CC(C)c1cc(Oc2c(Cl)cc(NCc3noc(=O)[nH]3)cc2Cl)nn(C)c1=O` [Example 1, 3-(((3,5-dichloro-4-((5-isopropyl-1-methyl-6-oxo-1,6-dihydropyridazin-3-yl)oxy)phenyl)amino)methyl)-1,2,4-oxadiazol-5(4H)-one], in test [1], the THRβ-Selectivity is 17.2 and the EC50 turned out to be 7.6 nM. Besides, in test [2], the 50% effective concentration (EC50) was 49.5 nM.

Consider `CC(C)c1cc(Oc2c(Cl)cc(N(C)Cc3noc(=O)[nH]3)cc2Cl)nn(C)c1=O` [Example 2, 3-(((3,5-dichloro-4-((5-isopropyl-1-methyl-6-oxo-1,6-dihydropyridazin-3-yl)oxy)phenyl)(methyl)amino)methyl)-1,2,4-oxadiazol-5(4H)-one], for which the concentration giving a half-maximal response (EC50) in test [1] and in test [2] was more than 5000 nM in each case.

In the case of `CC(C)c1cc(Oc2c(Cl)cc(NC(=O)c3noc(=O)[nH]3)cc2Cl)nn(C)c1=O` [Example 4, N-(3,5-dichloro-4-((5-isopropyl-1-methyl-6-oxo-1,6-dihydropyridazin-3-yl)oxy)phenyl)-5-oxo-4,5-dihydro-1,2,4-oxadiazole-3-carboxamide], in test [1], the THRβ-Selectivity is reported as 31.7 and the half-maximal effective concentration (EC50) amounted to 27.1 nM. The half-maximal effective concentration (EC50) in test [2] came out at 314 nM.

As for `CC(C)c1cc(Oc2c(Cl)cc(NCc3noc(=O)[nH]3)cc2Cl)n[nH]c1=O` [Example 5, 3-(((3,5-dichloro-4-((5-isopropyl-6-oxo-1,6-dihydropyridazin-3-yl)oxy)phenyl)amino)methyl)-1,2,4-oxadiazol-5(4H)-one], in test [1], the THRβ-Selectivity worked out at 27.8 and the concentration for a half-maximal effect (EC50) was determined as 74.2 nM. The concentration for a half-maximal effect (EC50) in test [2] is 469 nM.

For the compound `CC(C)c1cc(Oc2c(Cl)cc(OCc3noc(=O)[nH]3)cc2Cl)nn(C)c1=O` [Example 6, 3-((3,5-dichloro-4-((5-isopropyl-1-methyl-6-oxo-1,6-dihydropyridazin-3-yl)oxy)phenoxy)methyl)-1,2,4-oxadiazol-5(4H)-one], in test [1], the THRβ-Selectivity is 3.6 and the concentration giving a half-maximal response (EC50) is 58.1 nM. Besides, in test [2], the concentration for a half-maximal effect (EC50) came out at 78 nM.

Take `CC(C)c1cc(Oc2c(Cl)cc(-c3cc(=O)[nH]o3)cc2Cl)nn(C)c1=O` [Example 7, 5-(3,5-dichloro-4-((5-isopropyl-1-methyl-6-oxo-1,6-dihydropyridazin-3-yl)oxy)phenyl)isoxazol-3(2H)-one]: in test [1], the THRβ-Selectivity was 13.1 and the EC50 came to 60.9 nM. The EC50 in test [2] stood at 473 nM.

`CC(C)c1cc(Oc2c(Cl)cc(-c3cc(=O)[nH]o3)cc2Cl)n[nH]c1=O` [Example 8, 5-(3,5-dichloro-4-((5-isopropyl-6-oxo-1,6-dihydropyridazin-3-yl)oxy)phenyl)isoxazol-3(2H)-one]: in test [1], the THRβ-Selectivity was 7 and the EC50 came to 896 nM. The 50% effective concentration (EC50) in test [2] turned out to be 2300 nM.

Consider `CC(C)c1cc(Oc2c(Cl)cc(-c3noc(=O)[nH]3)cc2Cl)n[nH]c1=O` [Example 9, 3-[3,5-dichloro-4-[(5-isopropyl-6-oxo-1H-pyridazin-3-yl)oxy]phenyl]-4H-1,2,4-oxadiazol-5-one], for which, in test [1], the THRβ-Selectivity is given as 0.7 and the EC50 is 290 nM. In addition, in test [2], the EC50 is 126 nM.

As to `Cc1c(NC(=O)c2noc(=O)[nH]2)cc(Cl)c(Oc2cc(C(C)C)c(=O)n(C)n2)c1Cl` [Example 11, N-(3,5-dichloro-4-((5-isopropyl-1-methyl-6-oxo-1,6-dihydropyridazin-3-yl)oxy)-2-methylphenyl)-5-oxo-4,5-dihydro-1,2,4-oxadiazole-3-carboxamide], in test [1], the THRβ-Selectivity stood at 4.8. Moreover, the half-maximal effective concentration (EC50) in test [1] was determined as 116 nM; in test [2] it was 192 nM.

In the case of `Cc1c(NCc2noc(=O)[nH]2)cc(Cl)c(Oc2cc(C(C)C)c(=O)n(C)n2)c1Cl` [Example 12, 3-(((3,5-dichloro-4-((5-isopropyl-1-methyl-6-oxo-1,6-dihydropyridazin-3-yl)oxy)-2-methylphenyl)amino)methyl)-1,2,4-oxadiazol-5(4H)-one], the THRβ-Selectivity in test [1] was found to be 6.2. The half-maximal effective concentration (EC50) in test [1] came to 71.2 nM; in test [2] it was 152 nM.

Consider `CC(C)c1cc(Cc2c(Cl)cc(NC(=O)c3noc(=O)[nH]3)cc2Cl)n[nH]c1=O` [Example 13, N-(3,5-dichloro-4-((5-isopropyl-6-oxo-1,6-dihydropyridazin-3-yl)methyl)phenyl)-5-oxo-4,5-dihydro-1,2,4-oxadiazole-3-carboxamide], for which the THRβ-Selectivity in test [1] is listed as 86.5. For the same compound, the EC50 in test [1] amounted to 53.6 nM; in test [2], 1630 nM.

In the case of `CC(C)c1cc(Cc2c(Cl)cc(NC(=O)c3noc(=O)[nH]3)cc2Cl)nn(C)c1=O` [Example 14, N-(3,5-dichloro-4-((5-isopropyl-1-methyl-6-oxo-1,6-dihydropyridazin-3-yl)methyl)phenyl)-5-oxo-4,5-dihydro-1,2,4-oxadiazole-3-carboxamide], in test [1], the THRβ-Selectivity is reported as 48 and the concentration for a half-maximal effect (EC50) came out at 46.6 nM. Further, the half-maximal effective concentration (EC50) in test [2] is 549 nM.

On to `CC(C)c1cc(Cc2c(Cl)cc(NCc3noc(=O)[nH]3)cc2Cl)n[nH]c1=O` [Example 15, 3-(((3,5-dichloro-4-((5-isopropyl-6-oxo-1,6-dihydropyridazin-3-yl)methyl)phenyl)amino)methyl)-1,2,4-oxadiazol-5(4H)-one], for which, in test [1], the THRβ-Selectivity is given as 11.7 and the EC50 was 31.5 nM. Also, the EC50 in test [2] worked out at 102 nM.

Compound `CC(C)c1cc(Cc2c(Cl)cc(NCc3noc(=O)[nH]3)cc2Cl)nn(C)c1=O` [Example 16, 3-(((3,5-dichloro-4-((5-isopropyl-1-methyl-6-oxo-1,6-dihydropyridazin-3-yl)methyl)phenyl)amino)methyl)-1,2,4-oxadiazol-5(4H)-one] displayed a THRβ-Selectivity in test [1] of 6.7. The figures for the EC50 in test [1] and in test [2] were 44.2 nM and 82.4 nM, respectively.

As to `CC(C)c1cc(C(=O)c2c(Cl)cc(NC(=O)c3noc(=O)[nH]3)cc2Cl)nn(C)c1=O` [Example 17, N-(3,5-dichloro-4-(5-isopropyl-1-methyl-6-oxo-1,6-dihydropyridazine-3-carbonyl)phenyl)-5-oxo-4,5-dihydro-1,2,4-oxadiazole-3-carboxamide], the THRβ-Selectivity in test [1] was more than 7.2. The concentration for a half-maximal effect (EC50) is 2110 nM in test [1] and more than 5000 nM in test [2].
